Measured values as given in paper PMC9841521, “Subnanomolar Affinity and Selective Antagonism at α7 Nicotinic Receptor by Combined Modifications of 2-Triethylammonium Ethyl Ether of 4-Stilbenol (MG624)” (Journal of Medicinal Chemistry, 2022).
“Also recorded” adds a separate entry of the source. Like-named read-outs stand apart in the source and are kept apart here.

Experiments:
human α3β4-nAChR subtype = molecular target: T1, human α3β4-nAChR subtype (Homo sapiens, UniProt P30926+P32297); assay: Competition binding with [3H]epibatidine, membranes of SH-EP1 cells stably transfected with α3 and β4; conditions: for Ki: human α3β4 expressed in SH-EP1 cells, confidence interval in parentheses, read-out: α3β4-nAChR [3H]-Epi Ki
T1 construct: expressed in transfected cells

human α4β2-nAChR subtype = molecular target: T2, human α4β2-nAChR subtype (Homo sapiens, UniProt P17787+P43681); assay: Competition binding with [3H]epibatidine, membranes of HEK 293 cells stably transfected with α4 and β2; conditions: human α4β2 expressed in HEK 293 cells; confidence interval in parentheses; read-out: α4β2-nAChR [3H]-Epi Ki
T2 construct: expressed in transfected cells; gift of Dr. Jon Lindstrom

human α7-nAChR [1] = molecular target: T3, human α7-nAChR (Homo sapiens, UniProt P36544); assay: Two-electrode voltage clamp, antagonism of currents activated by 1 mM ACh, test compound coapplied, X. laevis oocytes; assay type: cell-based; conditions: for inhibition of ACh-induced function at the α7-nAChR: maximal inhibition
human α9α10-nAChR [2] = molecular target: T4, human α9α10-nAChR (Homo sapiens, UniProt Q9GZZ6+Q9UGM1); assay: Two-electrode voltage clamp, antagonism of currents activated by 1 mM ACh, test compound coapplied, X. laevis oocytes (α9:α10 cRNA 9:1); assay type: cell-based; conditions: coapplied with 1 mM ACh; for inhibition of ACh-induced α9α10-nAChR function (in words) / IC50: up to 100 μM; for IC50: 95% confidence interval in parentheses; for inhibition of ACh-induced function at the α9α10-nAChR: maximal inhibition
T4 construct: expressed in transfected cells; host or cells: Xenopus laevis oocytes (cRNA injection, α9:α10 9:1)

human α9α10-nAChR [3] = molecular target: T4, human α9α10-nAChR; assay: Two-electrode voltage clamp, compound applied alone at 100 μM: intrinsic activity, rebound current, residual ACh response; assay type: cell-based; conditions: for partial agonism of α9α10-nAChRs, efficacy (AUC) / partial agonism of α9α10-nAChRs, efficacy (peak current): 100 μM pulse, alone, vs 1 mM ACh, range over the named compounds; for recovery of rebound current at α9α10-nAChR (in words): 1 min after test compound; for recovery of rebound current at α9α10-nAChR (in words) / residual ACh-induced current at α9α10-nAChR (in words): Figure 4; for residual ACh-induced current at α9α10-nAChR (in words): final ACh control 1 min after test compound
human α7-nAChR [4] = molecular target: T3, human α7-nAChR; assay: as above; assay type: cell-based; set-up: expressed in transfected cells; host or cells: SH-SY5Y neuroblastoma cells (transient); conditions: 100 μM pulse, vs 1 mM ACh, range over the named compounds
[5] = coapplied with 1 mM ACh, up to 100 μM
[6] = coapplied with 1 mM ACh, up to 100 μM, 95% confidence interval in parentheses, NA = not inhibited even at 100 μM, read-out: α7 IC50 (AUC)
[7] = coapplied with 1 mM ACh, up to 100 μM, 95% confidence interval in parentheses, NA = not inhibited even at 100 μM, read-out: α7 IC50 (peak current)

Row | SMILES | Ki (human α3β4-nAChR subtype) [µM] | Ki (human α4β2-nAChR subtype) [µM] | IC50 (human α9α10-nAChR [2]) [µM] | also measured
1 | CC[N+](CC)(CC)CCOc1ccccc1 [Compound 3, N,N,N-Triethyl-2-phenoxyethan-1-aminium Iodide] | 10 | 19 |  | 
2 | C=Cc1ccc(OCC[N+](CC)(CC)CC)cc1 [Compound 4, N,N,N-Triethyl-2-(4-vinylphenoxy)ethan-1-aminium Iodide] | 1.07 | 24 |  | 
3 | CC[N+](CC)(CC)CCOc1ccc(-c2ccccc2)cc1 [Compound 5, 2-([1,1′-Biphenyl]-4-yloxy)-N,N,N-triethylethan-1-aminium Iodide] | 0.44 | 11.8 |  | 
4 | CC[N+](CC)(CC)CCOc1ccc(CCc2ccccc2)cc1.[I-] [Compound 6, N,N,N-Triethyl-2-(4-phenethylphenoxy)ethan-1-aminium Iodide] | 1.25 |  | 9.12 | inhibition of ACh-induced α7-nAChR function (in words) (human α7-nAChR [1]; [5]): no inhibition; also recorded: no effect; also recorded: devoid of α7-nAChR antagonism; alpha7 nAChR IC50 (AUC) (human α7-nAChR [1]; supplementary CSV): not active; alpha7 nAChR IC50 (peak current) (human α7-nAChR [1]; supplementary CSV): not active; inhibition of ACh-induced α9α10-nAChR function (in words) (human α9α10-nAChR [2]): essentially full inhibition; partial agonism of α9α10-nAChRs, efficacy (AUC) (human α9α10-nAChR [3]): 0.2–3 % of ACh control; partial agonism of α9α10-nAChRs, efficacy (peak current) (human α9α10-nAChR [3]): 5–55 % of ACh control; block of subsequent ACh-induced function at α9α10-nAChRs (in words) (human α9α10-nAChR [3]; final 1 mM ACh 1 min after 100 μM compound, Figure 3B): significantly block
5 | CC[N+](CC)(CC)CCOc1ccc(C#Cc2ccccc2)cc1 [Compound 7, N,N,N-Triethyl-2-(4-(phenylethynyl)phenoxy)ethan-1-aminium Iodide] | 0.912 | 19.4 |  | 
6 | CC[N+](CC)(CC)CCOc1ccc(-c2ccc3ccccc3c2)cc1 [Compound 8, N,N,N-Triethyl-2-(4-(naphthalen-2-yl)phenoxy)ethan-1-aminium Iodide] | 0.458 | 1.8 |  | 
7 | CC[N+](CC)(CC)CCOc1ccc(-c2cccc3ccccc23)cc1.[I-] [Compound 9, N,N,N-Triethyl-2-(4-(naphthalen-1-yl)phenoxy)ethan-1-aminium Iodide] |  |  |  | higher affinity for the α3β4- than for the α7-nAChR (human α3β4-nAChR subtype; binding affinities): ≈ 30 fold
8 | CC[N+](CC)(CC)CCOc1ccc(/C=C/c2cccc3ccccc23)cc1 [Compound 10, (E)-N,N,N-Triethyl-2-(4-(2-(naphthalen-1-yl)vinyl)phenoxy)ethan-1-aminium Iodide] | 0.501 |  |  | 
9 | CC[N+](CC)(CC)CCOc1ccc(/C=C/c2ccc3ccccc3c2)cc1 [Compound 11, (E)-N,N,N-Triethyl-2-(4-(2-(naphthalen-2-yl)vinyl)phenoxy)ethan-1-aminium Iodide] | 0.425 |  |  | 
10 | CC[N+](CC)(CC)CCOc1ccc(/C=C/c2cccc(C(F)(F)F)c2)cc1 [Compound 15, (E)-N,N,N-Triethyl-2-(4-(3-(trifluoromethyl)styryl)phenoxy)ethan-1-aminium Iodide] | 1.41 | 21.8 |  | 
11 | CC[N+](CC)(CC)CCOc1ccc(/C=C/c2ccc(C(F)(F)F)cc2)cc1 [Compound 16, (E)-N,N,N-Triethyl-2-(4-(4-(trifluoromethyl)styryl)phenoxy)ethan-1-aminium Iodide] | 0.874 | 10.4 |  | 
12 | CC[N+](CC)(CC)CCOc1ccc(/C=C/c2ccc(OC)cc2)cc1 [Compound 18, (E)-N,N,N-Triethyl-2-(4-(4-methoxystyryl)phenoxy)ethan-1-aminium Iodide] | 0.187 |  |  | 
13 | CC[N+](CC)(CC)CCOc1ccc(/C=C/c2cccc(O)c2)cc1 [Compound 19, (E)-N,N,N-Triethyl-2-(4-(3-hydroxystyryl)phenoxy)ethan-1-aminium Iodide] | 0.998 | 10.1 |  | 
14 | CC[N+](CC)(CC)CCOc1ccc(/C=C/c2ccc(O)cc2)cc1 [Compound 20, (E)-N,N,N-Triethyl-2-(4-(4-hydroxystyryl)phenoxy)ethan-1-aminium Iodide] | 0.873 | 9.82 |  | 
15 | CC[N+](CC)(CC)CCOc1ccc(/C=C/c2cc(OC)cc(OC)c2)cc1 [Compound 21] | 0.676 | 1.2 |  | 
16 | CC[N+](CC)(CC)CCOc1ccc(/C=C/c2cc(O)cc(O)c2)cc1 [Compound 22, (E)-2-(4-(3,5-Dihydroxystyryl)phenoxy)-N,N,N-triethylethan-1-aminium Iodide] | 0.793 | 7.24 |  | 
17 | CC[N+](CC)(CC)CCOc1ccc(OCc2ccccc2)cc1 [Compound 23, 2-(4-(Benzyloxy)phenoxy)-N,N,N-triethylethan-1-aminium Iodide] | 4.7 |  |  | 
18 | CC[N+](CC)(CC)CCOc1ccc(NC(=O)c2ccccc2)cc1 [Compound 25, 2-(4-Benzamidophenoxy)-N,N,N-triethylethan-1-aminium Iodide] | 1.07 | 4.5 | 115 | IC50 (human α7-nAChR [1]; [6]): 26.9 µM; IC50 (human α7-nAChR [1]; [7]): 25.7 µM
19 | CC[N+](CC)(CC)CCOc1ccc(C(=O)Nc2ccccc2)cc1 [Compound 26, N,N,N-Triethyl-2-(4-(phenylcarbamoyl)phenoxy)ethan-1-aminium Iodide] | 0.113 | 23 | 75.9 | IC50 (human α7-nAChR [1]; [6]): > 100 µM; IC50 (human α7-nAChR [1]; [7]): > 100 µM; IC50 (human α7-nAChR [1]; supplementary CSV, read-out: alpha7 nAChR IC50 (AUC)): > 100 µM; IC50 (human α7-nAChR [1]; supplementary CSV, read-out: alpha7 nAChR IC50 (peak current)): > 100 µM
20 | CC[N+](CC)(CC)CCOc1ccc(/N=N/c2ccccc2)cc1.[I-] [Compound 27, (E)-N,N,N-Triethyl-2-(4-(phenyldiazenyl)phenoxy)ethan-1-aminium Iodide] |  |  | 15.8 | inhibition of ACh-induced α7-nAChR function (in words) (human α7-nAChR [1]; [5]): complete or nearly complete inhibition; IC50 (human α7-nAChR [1]; [6]): 5.54 µM; IC50 (human α7-nAChR [1]; [7]): 11.2 µM; inhibition of ACh-induced α9α10-nAChR function (in words) (human α9α10-nAChR [2]): complete or nearly complete inhibition
21 | CC[N+](CC)(CC)CCOc1ccc(-c2nc3ccccc3o2)cc1.[I-] [Compound 28, 2-(4-(Benzo[d]oxazol-2-yl)phenoxy)-N,N,N-triethylethan-1-aminium Iodide] | 0.653 |  | 72.4 | IC50 (human α7-nAChR [1]; [6]): 2.25 µM; IC50 (human α7-nAChR [1]; [7]): 1.78 µM; partial agonism of α9α10-nAChRs, efficacy (AUC) (human α9α10-nAChR [3]): 0.2–3 % of ACh control; partial agonism of α9α10-nAChRs, efficacy (peak current) (human α9α10-nAChR [3]): 5–55 % of ACh control; recovery of rebound current at α9α10-nAChR (in words) (human α9α10-nAChR [3]): almost complete recovery; residual ACh-induced current at α9α10-nAChR (in words) (human α9α10-nAChR [3]): highest residual ACh-induced currents; partial agonism at α7-nAChR, efficacy compared to ACh control (peak current) (human α7-nAChR [4]): 15–50%
22 | CC[N+](CC)(CC)CCOc1ccc(-c2nc3ccccc3[nH]2)cc1 [Compound 29, 2-(4-(1H-Benzo[d]imidazol-2-yl)phenoxy)-N,N,N-triethylethan-1-aminium Iodide] | 0.345 |  | 202 | IC50 (human α7-nAChR [1]; [6]): 197 µM; IC50 (human α7-nAChR [1]; [7]): 182 µM
23 | CC[N+](CC)(CC)CCOc1ccc(-c2ccc3cc[nH]c3c2)cc1.[I-] [Compound 30, 2-(4-(1H-Indol-6-yl)phenoxy)-N,N,N-triethylethan-1-aminium Iodide] | 0.174 |  | 6.46 | inhibition of ACh-induced α7-nAChR function (in words) (human α7-nAChR [1]; [5]): complete or nearly complete inhibition; IC50 (human α7-nAChR [1]; [6]): 1.95 µM; IC50 (human α7-nAChR [1]; [7]): 1.91 µM; inhibition of ACh-induced function at the α7-nAChR (human α7-nAChR [1]; coapplied with 1 mM ACh): 100%; inhibition of ACh-induced α9α10-nAChR function (in words) (human α9α10-nAChR [2]): complete or nearly complete inhibition; inhibition of ACh-induced function at the α9α10-nAChR (human α9α10-nAChR [2]): 100%
24 | CC[N+](CC)(CC)CCOc1ccc(-c2ccc3[nH]ccc3c2)cc1.[I-] [Compound 31, 2-(4-(1H-Indol-5-yl)phenoxy)-N,N,N-triethylethan-1-aminium Iodide] | 0.177 |  | 8.13 | inhibition of ACh-induced α7-nAChR function (in words) (human α7-nAChR [1]; [5]): complete or nearly complete inhibition; IC50 (human α7-nAChR [1]; [6]): 1.86 µM; IC50 (human α7-nAChR [1]; [7]): 2.01 µM; inhibition of ACh-induced function at the α7-nAChR (human α7-nAChR [1]; coapplied with 1 mM ACh): 100%; inhibition of ACh-induced α9α10-nAChR function (in words) (human α9α10-nAChR [2]): complete or nearly complete inhibition; inhibition of ACh-induced function at the α9α10-nAChR (human α9α10-nAChR [2]): 100%
25 | CC[N+](CC)(CC)CCOc1ccc(-c2ccc3occc3c2)cc1 [Compound 32, 2-(4-(Benzofuran-5-yl)phenoxy)-N,N,N-triethylethan-1-aminium Iodide] | 0.343 |  |  | 
26 | C[N+]1(C)CC[C@@H](Oc2ccc(-c3ccc4[nH]ccc4c3)cc2)C1.[I-] [Compound 33, (R)-3-(4-(1H-Indol-5-yl)phenoxy)-1,1-dimethylpyrrolidin-1-ium Iodide] | 0.365 | 5.1 | 15.9 | inhibition of ACh-induced α9α10-nAChR function (in words) (human α9α10-nAChR [2]): complete or nearly complete inhibition; inhibition of ACh-induced function at the α9α10-nAChR (human α9α10-nAChR [2]): 100%; partial agonism of α9α10-nAChRs, efficacy (AUC) (human α9α10-nAChR [3]): 0.2–3 % of ACh control; partial agonism of α9α10-nAChRs, efficacy (peak current) (human α9α10-nAChR [3]): 5–55 % of ACh control; recovery of rebound current at α9α10-nAChR (in words) (human α9α10-nAChR [3]): almost complete recovery; residual ACh-induced current at α9α10-nAChR (in words) (human α9α10-nAChR [3]): highest residual ACh-induced currents
